# Measurements: ChEMBL document CHEMBL1137044, “Benzothiophene and naphthalene derived constrained SERMs” (Bioorg Med Chem Lett, 2004)
# Key:
# [1] = Inhibition of [3H]estradiol binding to Estrogen receptor beta
# [2] = Inhibition of [3H]estradiol binding to Estrogen receptor alpha
# Estrogen receptor [3] = biological target: T1, Estrogen receptor (Homo sapiens, UniProt Q92731+P03372); assay: Antagonist effect against 10 pM 17-beta-estradiol induced MCF-7 cell proliferation; format: functional, cell-based
# Estrogen receptor [4] = biological target: T1, Estrogen receptor; format: functional, cell-based; details: ishikawa
# Estrogen receptor [5] = biological target: T1, Estrogen receptor; assay: Agonist activity as alkaline phosphatase induction in Ishikawa endometrial cells compared to E2; format: functional, cell-based
Compound,Ki [1],Ki [2],IC50 (Estrogen receptor [3]),IC50 (Estrogen receptor [4]),EC50 (Estrogen receptor [5])
Oc1ccc2c(c1)Cc1ccc3cc(O)ccc3c1C2c1ccc(OCCN2CCCCC2)cc1 (stereo in doubt; form 2),4.2 nM,0.8 nM,,,
Oc1ccc2c(ccc3cc4ccc(O)cc4c(-c4ccc(OCCN5CCCCC5)cc4)c32)c1,0.5 nM,0.8 nM,57 nM,820 nM,10 nM
CCC(=C(c1ccc(O)cc1)c1ccc(OCCN(C)C)cc1)c1ccccc1,0.5 nM,0.5 nM,,,
Oc1ccc2c3c(ccc2c1)Cc1cccc(O)c1C3c1ccc(OCCN2CCCCC2)cc1 (stereo not drawn),40 nM,7.7 nM,68 nM,580 nM,28 nM
Oc1ccc2c(c1)sc1cc3ccc(O)cc3c(-c3ccc(C(O)CCN4CCCCC4)cc3)c12 (stereo not drawn),0.3 nM,0.4 nM,1 nM,690 nM,1.6 nM
Oc1ccc2c(c1)C(c1ccc(C(O)CCN3CCCCC3)cc1)c1c(sc3cc(O)ccc13)C2 (stereo not drawn),0.9 nM,0.5 nM,0.9 nM,53 nM,0.9 nM
Oc1ccc2c(c1)Cc1ccc3cc(O)ccc3c1C2c1ccc(OCCN2CCCCC2)cc1 (stereo in doubt; form 1),5.5 nM,1.1 nM,,,
"Oc1ccc2c(c1)Cc1ccc3cc(O)ccc3c1C2c1ccc(OCCN2CCCCC2)cc1 (single isomer, unassigned)",4.4 nM,0.7 nM,,,
Oc1ccc2c3c(ccc2c1)Cc1c(O)cccc1C3c1ccc(OCCN2CCCCC2)cc1 (stereo not drawn),5.4 nM,1.1 nM,2.9 nM,50 nM,0.7 nM
Oc1ccc2c(c1)Cc1sc3cc(O)ccc3c1C2c1ccc(C(O)CCN2CCCCC2)cc1 (stereo not drawn),1.3 nM,0.7 nM,0.7 nM,45 nM,0.4 nM
Oc1ccc2c(c1)C(c1ccc(OCCN3CCCCC3)cc1)c1c(ccc3cc(O)ccc13)C2 (stereo not drawn),3.2 nM,1 nM,6.6 nM,130 nM,2.6 nM
Oc1ccc2c3c(sc2c1)Cc1ccccc1C3c1ccc(C(O)CCN2CCCCC2)cc1 (stereo not drawn),5.3 nM,2.4 nM,17 nM,710 nM,3.5 nM
Oc1ccc2c3c(sc2c1)Cc1cccc(O)c1C3c1ccc(C(O)CCN2CCCCC2)cc1 (stereo not drawn),14 nM,2.6 nM,42 nM,680 nM,3.1 nM
